From patent US11292803B2, “Bioreducible N-oxide-based probes for imaging of hypoxia” (THE BOARD OF TRUSTEES OF THE UNIVERSITY OF ILLINOIS, priority 2018, dated 2022)

Legend:
[1] = Photophysical characterization (absorbance, emission, extinction coefficient, quantum yield); type: physicochemical; details: for ΦF / ε / λabs / λem: measured in CHCl3 (Table 1)
Method: Having established an effective synthetic route, attention was turned to the photophysical characterization of HyP-1 and red-HyP-1 (Table 1). HyP-1 has an absorbance maximum at 670 nm and corresponding emission maximum at 697 nm (FIG. 3a). The extinction coefficient (ε) and quantum yield (ΦF) were measured to be 1.5×10^4 cm^−1 M^−1 and 0.33 respectively. Red-HyP-1, on the other hand, has absorbance and emission maxima at 760 nm and 798 nm, respectively.
4-Aminoacetophenone was purchased from AK Scientific. Ethyl iodide, DIPEA, K2CO3, KOH, Na2SO4 and NH4OAc were purchased from Oakwood Chemicals. Benzaldehyde, BF3×OEt2, BIPY, DPI, DMSO, m-CPBA, nitroreductase and rat liver microsomes were purchased from Sigma Aldrich. Nitromethane was purchased from Alfa Aesar. Anaero-Indicators, AnaeroPacka anaerobic gas generators, acetonitrile, n-BuOH, CH2Cl2, EtOAc and Hexanes were purchased from Fisher Scientific. CDCl3 was purchased from Cambridge Isotopes Laboratory. Agarose LE was purchased from Gold Biotechnology. NADPH was purchased from EMD Millipore. All chemicals were used as purchased without further purification. Fluorinated ethylene propylene (FEP) tubing (wall thickness 0.01″, inner diameters 0.08″ and 0.12″) were purchased from McMaster-Carr. Thin-layer chromatography (TLC) was performed using glass-backed TLC plates coated with silica gel containing an UV254 fluorescent indicator (Macherey-Nagel). Flash chromatography was performed with 230-400 mesh silica gel P60 (SiliCycle Inc). UV-visible spectra were recorded on a Cary 60 spectrometer. Fluorescence spectra were recorded on a QuantaMaster-400 scanning spectrofluorometer using micro fluorescence quartz cuvettes (Science Outlet). NMR spectra were taken using Bruker or Varian 500 MHz spectrometers at 25° C. High-resolution mass spectra were acquired using Waters Q-Tof Ultima ESI and Waters Synapt G2-Si ESI/LC-MS spectrometers. Cellular imaging was performed using an EVOS FL cell imaging system. In vivo Fluorescence imaging was performed using an IVIS Spectrum CT live-animal imaging system (Perkin-Elmer, USA). PA imaging was performed using an Endra Nexus 128 photoacoustic tomography system (Ann Arbor, Mich., USA).

[2] = PA imaging of compound solutions in tissue-mimicking phantoms; type: physicochemical; details: solutions in tissue-mimicking phantom
Method: FIG. 3. Photophysical characterization of HyP-1 and red-HyP-1. (a) Normalized absorbance (dashed) and emission (solid) spectra of HyP-1 (left) and red-HyP-1 (right). (b) PA spectra of HyP-1 and red-HyP-1. PA images of HyP-1 and red-HyP-1 solutions (10 μM in 0.1 M potassium phosphate buffer (pH 7.4) with 50% EtOH co-solvent) in tissue-mimicking phantoms were obtained, and the mean PA signal corresponding to each compound was plotted as a function of wavelength. Results are presented as mean±SD (n=3). (c) PA signal corresponding to various concentrations of red-HyP-1. […]
The significant change in the absorbance profiles of these compounds can be attributed to disruption of the electron donating capability of the aniline in its N-oxide form. This chemical modification is akin to protonation of the aniline, which has been previously shown to result in similar shifts in the absorbance. The 90 nm separation in absorbance is essential to the probes design as it allows us to readily distinguish each species by selective excitation and subsequent detection using both PA and fluorescence imaging. […] Additionally, because HyP-1 and red-HyP-1 have spectrally resolved emission profiles, ratiometric imaging can be performed by determining the ratio of their fluorescence emission intensities. […]

[3] = Photophysical characterization (absorbance, emission, extinction coefficient, quantum yield); type: physicochemical; details: Table 2
[4] = Response to metal ions and reactive oxygen, nitrogen and sulfur species; details: 2 h, 37° C., phosphate buffer pH 7.4
Method: FIG. 9. Ratiometric fluorescent turn-on response of HyP-1 (2 μM) in the presence of various metal ions in 0.1 M potassium phosphate buffer (pH 7.4, 0.1% v/v CrEL) after 2 h incubation at 37° C. Concentrations used were 2 mM for Na^+, Mg^2+, K^+ and Ca^2+, and 50 μM for all other metal ions.
FIG. 10. Ratiometric fluorescence turn-on response of HyP-1 (2 μM) in the presence of various reactive oxygen, nitrogen and sulfur species (100 μM) in 0.1 M potassium phosphate buffer (pH 7.4, 0.1% v/v CrEL) after 2 h incubation at 37° C.
In addition to Fe(II), the response of HyP-1 to a variety of alkali, alkaline earth and transition metals was also determined. […] To further evaluate the stability of HyP-1, a 10 μM solution of the probe was exposed to ambient light and temperature for up to 5 days. Additionally, a 10 μM solution of HyP-1 supplemented with human plasma was incubated at 37° C. for 3 hours. […] As mentioned previously, a major limitation of 2-nitroimidazole-based hypoxia probes is their susceptibility to oxygen-independent reduction via two-electron processes, such as by bacterial nitroreductases. […] Finally, the photostability of both HyP-1 and red-HyP-1 was evaluated via continuous PA image acquisition at 770 nm over the course of 1 hour.

Structure (SMILES)	absorbance maximum [1] [nm]	emission maximum [1] [nm]	extinction coefficient (ε) [1] [cm⁻¹ M⁻¹]	quantum yield (ΦF) [1]	ΦF [1]	ε [1]	λabs [1] [nm]	λem [1] [nm]	PA signal at 770 nm [2]	Φ [3]	ε [3]	λabs [3] [nm]	decrease in quantum yield on conversion of HyP-1 to red-HyP-1 [1] [fold]	increase in extinction coefficient on conversion of HyP-1 to red-HyP-1 [1] [fold]	shift in absorbance on conversion of HyP-1 to red-HyP-1 [1] [nm]	turn-on response to alkali, alkaline earth and transition metals [4]
CCN(CC)c1ccc(-c2cc(-c3ccccc3)c3n2[B-](F)(F)[N+]2=C(c4ccc(OC)cc4)C=C(c4ccccc4)C2=N3)cc1 [Red-HyP-1, 4-(5,5-difluoro-7-(4-methoxyphenyl)-1,9-diphenyl-5H-5λ^4,6λ^4-dipyrrolo[1,2-c:2′,1′-f][1,3,5,2]triazaborinin-3-yl)-N,N-diethylaniline]	760	798	54000	0.15	0.15	5.4 × 10^4 M^−1 cm^1	760	798	strong PA signal	0.11	5.4 × 10^4 M^−1 · cm^1	760	–	–	–	–
CC[N+]([O-])(CC)c1ccc(-c2cc(-c3ccccc3)c3n2[B-](F)(F)[N+]2=C(c4ccc(OC)cc4)C=C(c4ccccc4)C2=N3)cc1 [HyP-1, 4-(5,5-difluoro-7-(4-methoxyphenyl)-1,9-diphenyl-5H-5λ^4,6λ^4-dipyrrolo[1,2-c:2′,1′-f][1,3,5,2]triazaborinin-3-yl)-N,N-diethylaniline oxide]	670	697	15000	0.33	0.33	1.4 × 10^4 M^−1 cm^1	670	697	no signal	0.33	1.5 × 10^4 M^−1 · cm^1	670	2.2	3.6	90	No significant turn-on
